{"source": "ChEMBL document CHEMBL5696442", "about": "“Discovery of type II inhibitors of TGFβ-activated kinase 1 (TAK1) and mitogen-activated protein kinase kinase kinase kinase 2 (MAP4K2)” (J Med Chem, 2015)", "key": {"[1]": {"target": "Cyclin-dependent kinase 2 (Homo sapiens) (UniProt P24941)", "test": "Inhibition of CDK2 Lys1 labeling site in human A-375 cells at 0.5 uM by KiNativ Profiling analysis relative to control", "type": "cell-based"}, "[2]": {"target": "Aurora kinase B (Homo sapiens) (UniProt Q96GD4)", "sequence (Q96GD4 whole entry)": "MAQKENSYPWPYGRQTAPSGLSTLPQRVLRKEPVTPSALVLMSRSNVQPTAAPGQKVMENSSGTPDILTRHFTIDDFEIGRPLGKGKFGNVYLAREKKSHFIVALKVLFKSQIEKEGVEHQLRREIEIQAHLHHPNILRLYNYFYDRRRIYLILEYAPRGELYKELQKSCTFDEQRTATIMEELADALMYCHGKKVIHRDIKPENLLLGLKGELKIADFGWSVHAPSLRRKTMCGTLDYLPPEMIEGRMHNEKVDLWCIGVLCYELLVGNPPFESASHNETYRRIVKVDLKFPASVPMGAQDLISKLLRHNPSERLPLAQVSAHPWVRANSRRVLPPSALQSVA", "test": "Inhibition of AURKB (unknown origin) at 1 uM by Ambit Kinomescan binding assay relative to control"}, "[3]": {"target": "T1, Serine/threonine-protein kinase ULK1 (Homo sapiens) (UniProt O75385)", "T1 sequence (whole entry)": "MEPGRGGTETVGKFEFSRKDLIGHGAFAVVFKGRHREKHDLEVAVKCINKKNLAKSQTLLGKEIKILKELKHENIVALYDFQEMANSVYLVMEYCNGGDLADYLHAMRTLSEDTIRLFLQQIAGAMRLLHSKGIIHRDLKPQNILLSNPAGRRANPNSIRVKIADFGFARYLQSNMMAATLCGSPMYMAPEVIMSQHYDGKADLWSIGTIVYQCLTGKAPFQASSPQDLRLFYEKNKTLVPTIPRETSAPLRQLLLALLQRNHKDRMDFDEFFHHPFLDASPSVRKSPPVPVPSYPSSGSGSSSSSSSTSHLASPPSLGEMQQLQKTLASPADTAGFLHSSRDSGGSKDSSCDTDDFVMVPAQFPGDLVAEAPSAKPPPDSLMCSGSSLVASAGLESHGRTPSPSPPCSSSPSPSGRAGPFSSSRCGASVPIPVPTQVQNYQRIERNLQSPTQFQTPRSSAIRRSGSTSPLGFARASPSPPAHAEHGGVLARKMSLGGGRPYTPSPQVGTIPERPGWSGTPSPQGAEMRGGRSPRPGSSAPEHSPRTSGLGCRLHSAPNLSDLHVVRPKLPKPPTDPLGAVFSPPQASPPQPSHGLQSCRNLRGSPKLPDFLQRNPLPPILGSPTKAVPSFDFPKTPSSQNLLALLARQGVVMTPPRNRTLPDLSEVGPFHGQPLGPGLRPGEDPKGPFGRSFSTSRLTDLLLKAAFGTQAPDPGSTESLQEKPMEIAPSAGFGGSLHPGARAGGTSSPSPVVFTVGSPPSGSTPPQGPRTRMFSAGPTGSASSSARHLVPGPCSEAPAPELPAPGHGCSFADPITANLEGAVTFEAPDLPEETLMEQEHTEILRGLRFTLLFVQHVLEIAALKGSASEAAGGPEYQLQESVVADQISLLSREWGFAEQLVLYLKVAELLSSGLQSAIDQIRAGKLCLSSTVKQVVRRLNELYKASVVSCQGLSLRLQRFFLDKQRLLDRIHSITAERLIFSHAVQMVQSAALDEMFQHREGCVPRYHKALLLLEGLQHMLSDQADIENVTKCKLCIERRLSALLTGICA", "test": "Inhibition of ULK1 (unknown origin) at 1 uM by Ambit Kinomescan binding assay relative to control"}, "[4]": {"target": "Mitogen-activated protein kinase 1 (Homo sapiens) (UniProt P28482)", "sequence (P28482 whole entry)": "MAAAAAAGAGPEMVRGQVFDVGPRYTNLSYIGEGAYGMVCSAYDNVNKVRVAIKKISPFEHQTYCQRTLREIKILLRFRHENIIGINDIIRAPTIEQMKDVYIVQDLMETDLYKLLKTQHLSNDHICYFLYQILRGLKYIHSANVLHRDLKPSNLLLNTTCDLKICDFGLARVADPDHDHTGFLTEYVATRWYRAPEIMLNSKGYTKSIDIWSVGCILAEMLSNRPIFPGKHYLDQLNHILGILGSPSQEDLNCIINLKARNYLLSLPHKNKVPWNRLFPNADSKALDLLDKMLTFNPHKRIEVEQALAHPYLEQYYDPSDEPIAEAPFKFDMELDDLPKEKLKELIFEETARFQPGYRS", "test": "Inhibition of ERK2 (unknown origin) at 1 uM by Ambit Kinomescan binding assay relative to control"}, "[5]": {"test": "Inhibition of MLK1/4 K2 labeling site in human Huh-7 cells at 10 uM by KiNativ Profiling analysis relative to control", "conditions": "condition cancer"}, "[6]": {"target": "Protein kinase C delta type (Homo sapiens) (UniProt Q05655)", "sequence (Q05655 whole entry, looked up)": "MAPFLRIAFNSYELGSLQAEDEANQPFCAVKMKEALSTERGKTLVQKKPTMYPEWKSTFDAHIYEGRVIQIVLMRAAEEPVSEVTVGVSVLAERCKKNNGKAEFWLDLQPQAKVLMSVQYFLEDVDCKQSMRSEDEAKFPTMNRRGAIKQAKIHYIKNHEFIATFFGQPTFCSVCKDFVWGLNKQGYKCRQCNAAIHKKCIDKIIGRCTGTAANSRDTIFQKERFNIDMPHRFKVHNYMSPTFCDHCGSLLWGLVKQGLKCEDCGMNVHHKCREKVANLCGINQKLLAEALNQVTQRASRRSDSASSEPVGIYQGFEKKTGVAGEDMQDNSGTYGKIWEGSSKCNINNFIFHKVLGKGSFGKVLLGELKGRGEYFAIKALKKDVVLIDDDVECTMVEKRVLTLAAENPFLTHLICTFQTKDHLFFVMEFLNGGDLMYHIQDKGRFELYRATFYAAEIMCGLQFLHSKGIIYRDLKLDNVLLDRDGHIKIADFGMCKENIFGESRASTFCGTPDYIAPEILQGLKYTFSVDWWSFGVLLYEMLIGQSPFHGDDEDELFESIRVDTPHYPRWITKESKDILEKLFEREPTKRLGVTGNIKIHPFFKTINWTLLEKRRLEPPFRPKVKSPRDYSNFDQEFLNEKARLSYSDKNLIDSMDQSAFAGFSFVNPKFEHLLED", "test": "Inhibition of PRKCD (unknown origin) at 10 uM by Ambit Kinomescan binding assay"}, "[7]": {"target": "Calcium/calmodulin-dependent protein kinase type II subunit gamma (Homo sapiens) (UniProt Q13555)", "sequence (Q13555 whole entry)": "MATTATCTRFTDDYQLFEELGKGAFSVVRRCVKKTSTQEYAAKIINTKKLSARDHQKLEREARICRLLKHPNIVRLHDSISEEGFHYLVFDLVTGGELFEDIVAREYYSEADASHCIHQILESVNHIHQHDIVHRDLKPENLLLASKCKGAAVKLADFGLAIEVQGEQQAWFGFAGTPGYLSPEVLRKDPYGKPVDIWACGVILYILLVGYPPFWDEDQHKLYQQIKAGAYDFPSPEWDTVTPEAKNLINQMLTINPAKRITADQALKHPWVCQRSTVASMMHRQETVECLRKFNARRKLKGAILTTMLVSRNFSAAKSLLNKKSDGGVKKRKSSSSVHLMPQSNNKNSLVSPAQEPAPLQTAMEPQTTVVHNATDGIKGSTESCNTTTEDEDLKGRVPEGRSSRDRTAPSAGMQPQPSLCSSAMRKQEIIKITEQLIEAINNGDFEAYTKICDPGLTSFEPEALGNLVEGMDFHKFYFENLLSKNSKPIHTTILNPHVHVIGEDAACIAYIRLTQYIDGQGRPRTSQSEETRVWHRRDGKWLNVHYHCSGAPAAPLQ", "test": "Inhibition of CAMK2g K1 labeling site harbouring KTSTQEYAAKIINTK in human Huh-7 cells at 10 uM by KiNativ Profiling analysis relative to control", "type": "cell-based"}, "[8]": {"target": "T2, Interleukin-1 receptor-associated kinase 4 (Homo sapiens) (UniProt Q9NWZ3)", "T2 sequence (whole entry)": "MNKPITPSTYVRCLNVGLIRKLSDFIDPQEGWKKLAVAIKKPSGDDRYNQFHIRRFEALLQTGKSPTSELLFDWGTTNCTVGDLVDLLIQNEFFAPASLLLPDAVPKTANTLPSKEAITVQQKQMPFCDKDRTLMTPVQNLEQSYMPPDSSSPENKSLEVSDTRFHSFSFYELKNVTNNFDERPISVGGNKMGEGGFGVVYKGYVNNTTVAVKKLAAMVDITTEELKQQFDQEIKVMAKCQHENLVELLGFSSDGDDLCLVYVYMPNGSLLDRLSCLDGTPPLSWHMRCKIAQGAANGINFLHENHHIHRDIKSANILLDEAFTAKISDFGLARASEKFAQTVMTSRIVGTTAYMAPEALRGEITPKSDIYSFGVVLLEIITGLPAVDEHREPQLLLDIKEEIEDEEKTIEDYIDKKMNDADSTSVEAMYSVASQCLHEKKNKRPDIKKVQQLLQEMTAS", "test": "Inhibition of IRAK4 K2 labeling site in human Huh-7 cells at 1 uM by KiNativ Profiling analysis relative to control", "type": "cell-based"}, "[9]": {"target": "T3, Acylglycerol kinase, mitochondrial (Homo sapiens) (UniProt Q53H12)", "T3 sequence (whole entry)": "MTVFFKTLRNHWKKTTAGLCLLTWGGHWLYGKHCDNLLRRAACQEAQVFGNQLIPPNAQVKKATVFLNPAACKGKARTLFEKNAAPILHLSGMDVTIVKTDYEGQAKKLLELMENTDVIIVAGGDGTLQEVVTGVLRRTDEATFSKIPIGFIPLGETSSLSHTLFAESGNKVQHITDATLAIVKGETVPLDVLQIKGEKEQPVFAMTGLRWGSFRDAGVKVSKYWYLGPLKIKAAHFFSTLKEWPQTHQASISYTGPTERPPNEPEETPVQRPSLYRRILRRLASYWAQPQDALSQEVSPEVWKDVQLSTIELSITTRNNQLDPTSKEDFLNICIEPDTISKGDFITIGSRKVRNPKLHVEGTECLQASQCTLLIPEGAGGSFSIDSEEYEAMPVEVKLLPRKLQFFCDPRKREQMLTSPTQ", "test": "Inhibition of AGK ATP labeling site in human Huh-7 cell lysate at 1 uM by KiNativ Profiling analysis relative to control", "type": "subcellular"}}, "note": "The source made the active and inactive calls. No cut-off for these calls is given here.", "data": [{"smiles": "CCN1CCN(Cc2ccc(NC(=O)c3ccc(C)c(/C=C/c4cnc5[nH]ccc5c4OC)c3)cc2C(F)(F)F)CC1", "values": [{"measurement": "inhibition", "setting": "[1]", "result": 20.7, "unit": "%"}, {"measurement": "inhibition", "setting": "[2]", "result": 65, "unit": "%"}, {"measurement": "inhibition", "setting": "[3]", "result": 68, "unit": "%"}, {"measurement": "inhibition", "setting": "[4]", "result": 100, "unit": "%"}]}, {"smiles": "CCN1CCN(Cc2ccc(NC(=O)c3ccc(C)c(Oc4ccnc5[nH]ccc45)c3)cc2C(F)(F)F)CC1", "values": [{"measurement": "inhibition at 10 µM", "setting": "[5]", "result": 2.9, "unit": "%"}, {"measurement": "inhibition", "setting": "[6]", "result": "inactive"}, {"measurement": "inhibition", "setting": "[7]", "result": 6.1, "unit": "%"}, {"measurement": "inhibition", "setting": "[8]", "result": -9.1, "unit": "%"}]}, {"smiles": "CNc1cc(Oc2cc(C(=O)Nc3cc(N4CCN(C)CC4)cc(C(F)(F)F)c3)ccc2C)ncn1", "values": [{"measurement": "inhibition", "setting": "[9]", "result": 3.4, "unit": "%"}]}]}
